Measured values: patent US20020151734A1, “12-HETrE analogs and methods of use thereof” (priority 2001, published 2002)
*1 amine or outer side, *2 acyl side, *3 side chain or, on linkers, in order; H or OH if unused. Where a SMILES comes first, the peptide text is derived from it. Bridges are numbered along the chain shown (N, C = ends). Roman numbers before positions name the chains, in order. [ ]: non-standard residue; d: D form. Actinocin(9to1) = Cc1c2oc3c(C)ccc(C(=O)[*:1])c3nc-2c(C(=O)[*:2])c(N)c1=O; NMeV = CN[C@H](C(=O)O)C(C)C; Sar = CNCC(=O)O

How the values were obtained:
RLME cells = experiment: Inhibition of [^3H]12(R)-HETrE binding to RLME cells; conditions: analog 1 μM; for % Inhibition of [^3H]12(R)-HETrE binding: [^3H]12(R)-HETrE at 10 nM, RLME cells; for Result (agonist or antagonist): classed from % inhibition of [^3H]12(R)-HETrE binding
Procedure: Alternatively, the antagonistic or agonistic activity of 12-HETrE analogs may be measured by determining the percentage of inhibition of [^3H]12(R)-HETrE binding at 10 nM to RLME cells. Generally, inhibition of [^3H]12(R)-HETrE binding greater than 50% is indicative of agonists and inhibition lower than 50% is indicative of antagonists.

VEGF mRNA = VEGF mRNA levels in microvessel endothelial (RLMVE) cells by slot blot analysis; type: cell-based; conditions: for effect on 12(R)-HETrE-induced VEGF mRNA/expression: co-incubation with 12(R)-HETrE
Procedure: The antagonistic or agonistic activity of 12-HETrE analogs may be measured by measuring increases in vascular cadothelial growth factor (VEGF) mRNA following incubation of microvessel endothelial cells (RLMVE cells) with 12(R)-HETrE and other compounds followed by slot blot analysis, as described in the Examples. […] In this way the 12-HETrE analogs 8-(R) and 8-(S) were determined to be 12(R)-HETrE agonists.
12(R)-HETrE increased VEGF mRNA levels in a time-dependent manner. A 5-fold increase over the control levels was observed 45 min after addition of 12(R)-HETrE. These levels gradually declined to the control levels by 48 h. […] 12(R)-HETrE increased VEGF mRNA in a concentration-dependent manner with 0.1 nM having the maximal effect.
Human VEGF cDNA was used as a probe for slot blot analysis to measure increases in VEGF mRNA following incubation of RLMVE cells with 12(R)-HETrE and 12-HETrE analogs. To measure agonistic activity compounds were added to the incubation medium at concentration of 0.1, 1, and 10 nM and their effect on VEGF mRNA levels after 45 min incubation was measured in comparison to that of 12(R)-HETrE at the same concentration. To measure antagonistic activity, compounds at the above concentrations were added with 0.1 nM 12(R)-HETrE and 45 min later RNA extracted samples were processed for slot blot analysis.

| Compound | % Inhibition of [^3H]12(R)-HETrE binding (RLME cells) [%] | Result (agonist or antagonist) (RLME cells) | further results |
| --- | --- | --- | --- |
| CCCCC/C=C\C[C@H](O)CC/C=C\C/C=C\CCCC(=O)NS(C)(=O)=O [1-a-(R), N-(Methylsulfonyl)-12(R)-hydroxyeicosa-5(Z),8(Z),14(Z)-trienamide] | 62.6 | Agonist (inhibition of [^3H]12(R)-HETrE binding greater than 50% is indicative of agonists) | – |
| CCCCC/C=C\C[C@@H](O)CC/C=C\C/C=C\CCCC(=O)NS(C)(=O)=O [1-a-(S), N-(Methylsulfonyl)-12(S)-hydroxyeicosa-5(Z),8(Z),14(Z)-trienamide] | 33.3 | Antagonist (inhibition lower than 50% is indicative of antagonists) | increase in VEGF mRNA (densitometry) (VEGF mRNA; 1 nM, 45 min incubation): 5 fold; agonistic activity by VEGF mRNA increase (VEGF mRNA; slot blot analysis): significant agonistic activity |
| CCCCC/C=C\C[C@@H](CC/C=C\C/C=C\CCCC(=O)O)OC [2-(R), 12(R)-Methoxyeicosa-5(Z),8(Z),14(Z)-trienoic acid] | 38.6 | Antagonist (inhibition lower than 50% is indicative of antagonists) | – |
| CCCCC/C=C\C[C@H](CC/C=C\C/C=C\CCCC(=O)O)OC [2-(S), 12(S)-Methoxyeicosa-5(Z),8(Z),14(Z)-trienoic acid] | 34.2 | Antagonist (inhibition lower than 50% is indicative of antagonists) | – |
| CCCCC/C=C\C[C@H](O)CC/C=C\CC#CCCCC(=O)O [3-(R), 12(R)-hydroxyeicosa-8(Z),14(Z)-dien-5-ynoic acid] | 58.1 | Agonist (inhibition of [^3H]12(R)-HETrE binding greater than 50% is indicative of agonists) | – |
| CCCCC/C=C\C[C@@H](O)CC/C=C\CC#CCCCC(=O)O [3-(S), 12(S)-Hydroxyeicosa-8(Z),14(Z)-dien-5-ynoic acid] | 23.6 | Antagonist (inhibition lower than 50% is indicative of antagonists) | – |
| CCCCC/C=C\C[C@H](O)CC/C=C\C/C=C\COCC(=O)O [4-a-(R), (9(R)-Hydroxyheptadeca-2(Z),5(Z),11(Z)-trienyloxy)acetic acid] | 48.0 | Antagonist (inhibition lower than 50% is indicative of antagonists) | – |
| CCCCC/C=C\C[C@@H](O)CC/C=C\C/C=C\COCC(=O)O [4-a-(S)] | 24.3 | Antagonist (inhibition lower than 50% is indicative of antagonists) | – |
| CCCCC/C=C\C[C@H](O)CC/C=C\CCCCCCC(=O)O [5-(R), 12(R)-Hydroxyeicosa-8(Z),14(Z)-dienoic acid] | 92.4 | Agonist (inhibition of [^3H]12(R)-HETrE binding greater than 50% is indicative of agonists) | – |
| CCCCC/C=C\C[C@@H](O)CC/C=C\CCCCCCC(=O)O [5-(S), 12(S)-Hydroxyeicosa-8(Z),14(Z)-dienoic acid] | 54.5 | Agonist (inhibition of [^3H]12(R)-HETrE binding greater than 50% is indicative of agonists) | – |
| CCCCCCCC[C@@H](O)CC/C=C\C/C=C\CCCC(=O)O [6-(R), 12(R)-Hydroxyeicosa-5(Z),8(Z)-dienoic acid] | 87.2 | Agonist (inhibition of [^3H]12(R)-HETrE binding greater than 50% is indicative of agonists) | – |
| CCCCCCCC[C@H](O)CC/C=C\C/C=C\CCCC(=O)O [6-(S), 12(S)-Hydroxyeicosa-5(Z),8(Z)-dienoic acid] | 73.0 | Agonist (inhibition of [^3H]12(R)-HETrE binding greater than 50% is indicative of agonists) | – |
| CCCCC/C=C\C[C@H](O)CCCCC/C=C\CCCC(=O)O [7-(R), 12(R)-Hydroxy-eicosa-5(Z),14(Z)-dienoic acid] | 88.7 | Agonist (inhibition of [^3H]12(R)-HETrE binding greater than 50% is indicative of agonists) | – |
| CCCCC/C=C\C[C@@H](O)CCCCC/C=C\CCCC(=O)O [7-(S), 12(S)-Hydroxyeicosa-5,(Z)14(Z)-dienoic acid] | 69.5 | Agonist (inhibition of [^3H]12(R)-HETrE binding greater than 50% is indicative of agonists) | – |
| CCCCCC=CC[C@H](O)CCC=CCC=CCCCC(=O)O [12(R)-HETrE, 12(R)-hydroxy-5,8,14-eicosatrienoic acid] | 69.8 | – | time by which VEGF mRNA levels declined to the control levels (VEGF mRNA; 0.1 nM): ≤ 48 h; increase in VEGF mRNA over the control levels (VEGF mRNA; 0.1 nM, 45 min after addition): 5 fold; concentration having the maximal effect on VEGF mRNA (VEGF mRNA; concentration-dependent increase): 0.1 nM |
| CCCCC/C=C\C[C@@H](O)CC/C=C\C/C=C\CCCC(=O)O [12(S)-HETrE, 12(S)-(5Z,8Z,14Z)-12-hydroxyeicosa-5,8,14-trienoic acid, reference compound] | 62.4 | Agonist (inhibition of [^3H]12(R)-HETrE binding greater than 50% is indicative of agonists) | – |
| Cc1c2oc3c(C)ccc(C(=O)N[C@@H]4C(=O)N[C@H](C(C)C)C(=O)N5CCC[C@H]5C(=O)N(C)CC(=O)N(C)[C@@H](C(C)C)C(=O)O[C@@H]4C)c3nc-2c(C(=O)N[C@@H]2C(=O)N[C@H](C(C)C)C(=O)N3CCC[C@H]3C(=O)N(C)CC(=O)N(C)[C@@H](C(C)C)C(=O)O[C@@H]2C)c(N)c1=O [actinomycin D] (I: T[dV]P[Sar][NMeV] / II: T[dV]P[Sar][NMeV]; ester I:1-I:C, II:1-II:C; linker I:N-II:N via Actinocin(9to1)) | – | – | effect on 12(R)-HETrE-induced VEGF mRNA/expression (VEGF mRNA): abolished |
| C[C@@H]1C[C@@H]([C@H](O)CC2CC(=O)NC(=O)C2)C(=O)[C@@H](C)C1 [cycloheximide] | – | – | effect on 12(R)-HETrE-induced VEGF mRNA/expression (VEGF mRNA): did not affect |
